Assay [1] in a line: (§1) Biochemical Assay: In brief, this Rpn11 bioassay employs a fluorescent polarization readout based on the ability of the 26S proteasome to cleave the protein substrate including four tandem ubiquitin proteins fused to a peptide having a unique cysteine labeled with a fluorophore. Cleavage of this substrate by Rpn11 at the junction between the fourth ubiquitin and the peptide, releases the low molecular weight fluorescent peptide. Accordingly, inhibition of fluorescence correlates with inhibition of Rpn11. Inhibition is reported as the half maximal inhibitory concentration (IC50) for the candidate compound.The catalytic JAB1/MPN/Mov34 metalloenzyme (JAMM) motif of Rpn11 is found in 7 different human proteins including the Csn5 subunit of the COP9 signalosome, AMSH, AMSH-LP, the BRCC36 subunit of BRISC, MPND, and MYSM1. All of these enzymes cleave the isopeptide linkage that joins ubiquitin (or the ubiquitin-like protein Nedd8 in the case of Csn5) to a second molecule of ubiquitin or to a substrate. The conserved JAMM domain has the consensus sequence EXnHS/THX7SXXD, in which the histidine (His) and aspartic acid (Asp) residues bind the Zn2+ ion and the fourth coordination site is occupied by a water molecule that is engaged in hydrogen bonding with a conserved glutamic acid (Glu). The Zn2+ acts as a Lewis acid and increases the nucleophilic character of the bound water enough to allow hydrolytic cleavage of the isopeptide bond.

Assay [2] is described as follows: as §1. This is another data set of the same source.
A short description of assay [3]: as §1. The source holds these as a separate data set.

The structures appear in SMILES notation. A value given as a limit tells only on which side of the number the result lay.

For `O=C(NCc1ccccc1)c1cnc2c(S)cccc2c1`, the IC50 – broadly, the concentration that inhibits the measured activity by half – amounted to 15 µM in assay [1], 11 µM in assay [2] and 1.1 µM in assay [3].
`O=C(NCc1ccc(N2CCOCC2)cc1)c1cnc2c(S)cccc2c1`: the IC50 in assay [3] stood at 0.8 µM.
In assay [1], `O=C(NCc1nccs1)c1cnc2c(S)cccc2c1` showed an IC50 of 7.8 µM.
In the case of `O=C(NCc1ccc(F)cc1)c1cnc2c(S)cccc2c1`, the IC50 in assay [1] was 0.85 µM; in assay [2], 18 µM.
The corresponding values for `CNC(=O)c1cnc2c(S)cccc2c1` are 4.8 µM and 68 µM.
Take `NC(=O)c1cnc2c(S)cccc2c1`: the IC50 in assay [1] is 1.2 µM; in assay [3], 1 µM.
As to `O=C(NCc1cccs1)c1cnc2c(S)cccc2c1`, the IC50 in assay [1] is 1.3 µM; in assay [2], 16 µM; in assay [3] it was 0.8 µM.
Turning to `O=C(NCCc1ccco1)c1cnc2c(S)cccc2c1`, the IC50 amounted to 1.7 µM in assay [1] and 6.9 µM in assay [2].
Take `O=C(NCc1ccc2c(c1)OCO2)c1cnc2c(S)cccc2c1`: the IC50 in assay [1] was less than 0.2 µM; in assay [2], 7 µM; in assay [3], 0.9 µM.
`O=C(NCc1ccccn1)c1cnc2c(S)cccc2c1`: the IC50 in assay [1] came to 16.7 µM.
The compound `O=C(NCc1cccnc1)c1cnc2c(S)cccc2c1` showed an IC50 in assay [1] of 3.52 µM.
Consider `O=C(NCc1ccco1)c1cnc2c(S)cccc2c1`, for which the IC50 in assay [1] and in assay [3] was 0.9 µM each time.
In the case of `COc1ccc(CNC(=O)c2cnc3c(S)cccc3c2)cc1`, the results for the IC50 in assay [1] and in assay [2] were 0.6 µM and 0.5 µM, respectively.
In assay [1], `O=C(NCCc1ccco1)c1ccnc2c(S)cccc12` returned an IC50 of 2.9 µM.
With `O=C(NCC1CCCO1)c1cnc2c(S)cccc2c1` (stereo unspecified), the IC50 was 6.8 µM in assay [1], 41.3 µM in assay [2] and 4.6 µM in assay [3].
Consider `O=C(NCCc1nccs1)c1cnc2c(S)cccc2c1`, for which, in assay [2], 30 µM corresponded to half-maximal inhibition (IC50).
On to `O=C(NCCN1CCOCC1)c1cnc2c(S)cccc2c1`, for which the IC50 in assay [1] was found to be 25.4 µM; in assay [3], 6.4 µM.
In assay [1], `O=C(Nc1nccs1)c1cnc2c(S)cccc2c1` had an IC50 of 3.3 µM.
Take `O=C(NCCc1cccs1)c1cnc2c(S)cccc2c1`: the figures for the IC50 in assay [1], in assay [2] and in assay [3] were 1.3 µM, 4 µM and 0.3 µM, respectively.

The record behind these values is ChEMBL document CHEMBL5727136, “Inhibitors of RPN11” (2018).
